pIC50: −log10 of the molar value.
Assays:
[1] = logD7.4 assay (Chrom log D method); format: physicochemical; conditions: reversed-phase HPLC on Phenomenex Luna C8 column, pH 7.4, read-out: Measured logD7.4
How it was run: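 Samples at 1mM in 10% DMSO/90% Trizma buffer (100mM Trizma in 75/25 methanol/water) injected onto a C8 column at 30°C under gradient elution at 2 mL/min. Retention calibrated against calibration and validation standards.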

CCKAR = biological target: T1, CCKAR (Homo sapiens, UniProt P32238); experiment: SAFETYScan GPCR Calcium Flux, Antagonist; format: cell-based
T1 sequence (P32238 1-428): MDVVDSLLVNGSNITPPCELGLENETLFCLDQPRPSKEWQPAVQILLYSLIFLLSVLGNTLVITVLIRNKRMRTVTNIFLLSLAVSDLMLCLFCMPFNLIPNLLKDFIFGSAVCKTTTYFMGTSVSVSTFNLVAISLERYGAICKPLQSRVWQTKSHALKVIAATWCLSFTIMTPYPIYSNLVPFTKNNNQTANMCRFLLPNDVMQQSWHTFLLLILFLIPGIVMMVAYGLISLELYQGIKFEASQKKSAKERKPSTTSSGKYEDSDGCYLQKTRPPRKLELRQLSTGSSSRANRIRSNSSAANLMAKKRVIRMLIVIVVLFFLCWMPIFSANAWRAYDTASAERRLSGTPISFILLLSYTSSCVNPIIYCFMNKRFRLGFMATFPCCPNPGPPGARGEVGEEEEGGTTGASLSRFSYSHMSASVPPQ
From the text: (§1) Supplement jm1c02175_si_002.xlsx, sheet "SAFETYScan" | column: RC50 (uM); Max Response

CHRM3 = CHRM3 (Homo sapiens, UniProt P20309); experiment: SAFETYScan GPCR Calcium Flux, Antagonist; format: cell-based
Sequence of CHRM3 (P20309 whole entry): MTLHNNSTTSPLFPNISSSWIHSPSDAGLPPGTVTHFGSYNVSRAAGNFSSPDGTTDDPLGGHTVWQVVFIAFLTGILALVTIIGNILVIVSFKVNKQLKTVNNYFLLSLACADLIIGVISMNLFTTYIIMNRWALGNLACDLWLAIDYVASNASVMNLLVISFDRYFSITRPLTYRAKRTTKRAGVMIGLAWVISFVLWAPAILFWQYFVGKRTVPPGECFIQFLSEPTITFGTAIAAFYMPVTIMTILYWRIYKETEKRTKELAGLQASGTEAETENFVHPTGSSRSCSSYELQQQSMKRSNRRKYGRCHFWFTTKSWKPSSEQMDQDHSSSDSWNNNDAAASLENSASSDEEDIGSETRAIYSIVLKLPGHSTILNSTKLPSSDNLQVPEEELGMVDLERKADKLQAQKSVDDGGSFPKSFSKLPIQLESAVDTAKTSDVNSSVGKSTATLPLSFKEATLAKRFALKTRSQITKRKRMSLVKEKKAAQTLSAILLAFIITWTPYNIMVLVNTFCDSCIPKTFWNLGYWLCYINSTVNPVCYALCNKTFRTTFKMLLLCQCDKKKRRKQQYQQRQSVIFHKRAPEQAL
From the text: as §1

HTR2A = HTR2A (Homo sapiens, UniProt P28223); experiment: SAFETYScan GPCR Calcium Flux, Antagonist; format: cell-based
Sequence of HTR2A (P28223 whole entry): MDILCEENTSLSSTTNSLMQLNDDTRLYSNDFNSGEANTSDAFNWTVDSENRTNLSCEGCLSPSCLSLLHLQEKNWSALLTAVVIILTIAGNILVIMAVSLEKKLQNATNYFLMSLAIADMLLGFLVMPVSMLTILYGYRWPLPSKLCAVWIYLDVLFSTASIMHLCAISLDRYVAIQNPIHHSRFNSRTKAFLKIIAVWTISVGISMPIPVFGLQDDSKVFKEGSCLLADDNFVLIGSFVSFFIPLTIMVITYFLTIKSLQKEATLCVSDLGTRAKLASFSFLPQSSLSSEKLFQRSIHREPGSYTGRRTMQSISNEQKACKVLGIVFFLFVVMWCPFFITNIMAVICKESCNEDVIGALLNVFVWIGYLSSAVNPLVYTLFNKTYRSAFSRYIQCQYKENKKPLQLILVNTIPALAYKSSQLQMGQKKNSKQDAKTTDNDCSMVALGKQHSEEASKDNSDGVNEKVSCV
From the text: as §1

CHRM1 = biological target: T2, CHRM1 (Homo sapiens, UniProt P11229); experiment: SAFETYScan GPCR Calcium Flux, Antagonist; format: cell-based
T2 sequence (P11229 1-460): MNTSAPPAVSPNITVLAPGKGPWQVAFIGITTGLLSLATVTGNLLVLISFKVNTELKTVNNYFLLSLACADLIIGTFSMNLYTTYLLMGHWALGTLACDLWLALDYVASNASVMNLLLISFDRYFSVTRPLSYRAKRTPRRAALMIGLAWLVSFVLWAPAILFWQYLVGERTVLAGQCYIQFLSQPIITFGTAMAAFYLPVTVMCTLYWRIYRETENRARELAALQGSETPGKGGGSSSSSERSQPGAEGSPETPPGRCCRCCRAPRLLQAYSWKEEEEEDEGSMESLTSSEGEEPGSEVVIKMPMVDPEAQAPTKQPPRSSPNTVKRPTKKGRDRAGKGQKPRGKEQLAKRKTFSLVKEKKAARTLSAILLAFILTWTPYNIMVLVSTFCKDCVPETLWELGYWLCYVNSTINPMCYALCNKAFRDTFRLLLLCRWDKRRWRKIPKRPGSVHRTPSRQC
From the text: as §1

[2] = Microsomal clearance assay (HLM); format: in vitro ADME; conditions: human liver microsomes, 1 μM compound
Procedure: 6. Supplementary experimental: in vitro DMPK assays
6.1 Microsomal clearance assay
Microsomal clearance was determined in female CD1 mice, female Sprague–Dawley rats, and mixed gender human liver microsomes obtained from BioIVT (Peterborough, U.K.) following incubation of 1 μM compound at 37 °C in 0.5 mg/mL microsomal protein, 3 mmol/L MgCl2, 1 mmol/L NADPH, 2.5 mmol/L and 10 mmol/L phosphate buffer (pH 7.4) (all purchased from Sigma-Aldrich, Gillingham, U.K). Reactions were started by addition of the cofactors following 10 min preincubation of microsomes with test compound and were terminated at −1, 0, 5, 10, 15, and 30 min with three volumes of ice-cold methanol containing internal standard. Samples were centrifuged at 2800g for 30 min at 4 °C and the supernatants analyzed.
Control incubations were prepared as above with omission of cofactors. Compound measurements were […]
separation with a 3 min gradient of 0.1% formic acid in methanol on a Kinetex C18, 50 × 2.1 mm 2.6 μm UPLC column (Phenomenex, Macclesfield, UK). […]

SERT = SERT (Homo sapiens, UniProt P31645); experiment: SAFETYScan Transporter, Blocker; format: cell-based
Sequence of SERT (P31645 whole entry): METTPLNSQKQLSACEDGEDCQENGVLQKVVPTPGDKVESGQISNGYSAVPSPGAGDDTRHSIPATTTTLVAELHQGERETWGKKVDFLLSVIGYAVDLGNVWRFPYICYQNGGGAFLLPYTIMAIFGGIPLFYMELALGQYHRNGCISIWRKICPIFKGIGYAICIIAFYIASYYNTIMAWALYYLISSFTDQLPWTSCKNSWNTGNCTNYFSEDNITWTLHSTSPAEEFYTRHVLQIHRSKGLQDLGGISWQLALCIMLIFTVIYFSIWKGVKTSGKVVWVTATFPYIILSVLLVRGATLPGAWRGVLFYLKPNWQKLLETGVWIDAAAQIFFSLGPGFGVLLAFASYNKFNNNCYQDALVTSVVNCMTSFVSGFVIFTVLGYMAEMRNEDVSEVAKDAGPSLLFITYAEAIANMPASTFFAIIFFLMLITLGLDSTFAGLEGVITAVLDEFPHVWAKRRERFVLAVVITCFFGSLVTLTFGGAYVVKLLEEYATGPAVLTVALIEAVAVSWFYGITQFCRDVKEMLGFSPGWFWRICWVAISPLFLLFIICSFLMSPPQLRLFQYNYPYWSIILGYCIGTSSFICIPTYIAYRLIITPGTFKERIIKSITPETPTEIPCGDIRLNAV
From the text: as §1

NET = NET (Homo sapiens, UniProt P23975); experiment: SAFETYScan Transporter, Blocker; format: cell-based
Sequence of NET (P23975 whole entry): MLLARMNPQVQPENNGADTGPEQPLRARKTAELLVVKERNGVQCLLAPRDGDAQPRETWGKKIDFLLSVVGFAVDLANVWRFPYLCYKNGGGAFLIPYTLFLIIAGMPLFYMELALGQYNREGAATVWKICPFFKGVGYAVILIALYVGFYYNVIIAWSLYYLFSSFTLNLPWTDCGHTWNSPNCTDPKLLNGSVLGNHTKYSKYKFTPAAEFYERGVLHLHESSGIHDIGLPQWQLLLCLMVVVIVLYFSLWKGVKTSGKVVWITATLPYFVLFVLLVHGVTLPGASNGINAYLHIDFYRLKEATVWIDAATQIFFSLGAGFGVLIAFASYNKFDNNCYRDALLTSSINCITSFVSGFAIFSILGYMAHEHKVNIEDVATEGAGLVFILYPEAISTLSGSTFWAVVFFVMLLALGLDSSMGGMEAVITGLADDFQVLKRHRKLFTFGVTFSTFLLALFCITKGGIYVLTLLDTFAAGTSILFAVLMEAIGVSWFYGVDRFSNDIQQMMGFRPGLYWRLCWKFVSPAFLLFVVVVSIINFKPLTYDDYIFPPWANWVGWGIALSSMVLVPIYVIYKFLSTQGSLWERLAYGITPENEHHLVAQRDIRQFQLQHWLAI
From the text: as §1

DAT = DAT (Homo sapiens, UniProt Q01959); experiment: SAFETYScan Transporter, Blocker; format: cell-based
Sequence of DAT (Q01959 whole entry): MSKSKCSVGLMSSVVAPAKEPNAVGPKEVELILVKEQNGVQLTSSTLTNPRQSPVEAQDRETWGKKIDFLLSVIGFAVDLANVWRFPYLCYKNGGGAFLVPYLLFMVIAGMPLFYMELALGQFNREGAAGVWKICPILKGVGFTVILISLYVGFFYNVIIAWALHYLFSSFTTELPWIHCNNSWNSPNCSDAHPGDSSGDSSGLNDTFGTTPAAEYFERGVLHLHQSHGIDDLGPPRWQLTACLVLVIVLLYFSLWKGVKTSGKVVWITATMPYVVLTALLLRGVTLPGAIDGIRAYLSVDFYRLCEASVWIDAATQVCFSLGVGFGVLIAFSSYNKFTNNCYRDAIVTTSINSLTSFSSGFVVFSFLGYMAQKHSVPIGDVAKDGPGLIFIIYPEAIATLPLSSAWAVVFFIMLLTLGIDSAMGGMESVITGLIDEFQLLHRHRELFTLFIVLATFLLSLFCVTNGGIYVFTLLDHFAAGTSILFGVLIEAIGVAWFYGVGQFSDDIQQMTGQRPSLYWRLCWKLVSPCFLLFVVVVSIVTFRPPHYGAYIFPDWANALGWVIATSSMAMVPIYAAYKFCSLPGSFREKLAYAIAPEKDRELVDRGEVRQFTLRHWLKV
From the text: as §1

COX1 = COX1 (Homo sapiens, UniProt P23219); experiment: SAFETYScan Non-Kinase Enzymes Enzymatic, Inhibitor; format: biochemical
From the text: as §1

AChE = AChE (Homo sapiens, UniProt P22303); experiment: SAFETYScan Non-Kinase Enzymes Enzymatic, Inhibitor; format: biochemical
Sequence of AChE (P22303 32-614): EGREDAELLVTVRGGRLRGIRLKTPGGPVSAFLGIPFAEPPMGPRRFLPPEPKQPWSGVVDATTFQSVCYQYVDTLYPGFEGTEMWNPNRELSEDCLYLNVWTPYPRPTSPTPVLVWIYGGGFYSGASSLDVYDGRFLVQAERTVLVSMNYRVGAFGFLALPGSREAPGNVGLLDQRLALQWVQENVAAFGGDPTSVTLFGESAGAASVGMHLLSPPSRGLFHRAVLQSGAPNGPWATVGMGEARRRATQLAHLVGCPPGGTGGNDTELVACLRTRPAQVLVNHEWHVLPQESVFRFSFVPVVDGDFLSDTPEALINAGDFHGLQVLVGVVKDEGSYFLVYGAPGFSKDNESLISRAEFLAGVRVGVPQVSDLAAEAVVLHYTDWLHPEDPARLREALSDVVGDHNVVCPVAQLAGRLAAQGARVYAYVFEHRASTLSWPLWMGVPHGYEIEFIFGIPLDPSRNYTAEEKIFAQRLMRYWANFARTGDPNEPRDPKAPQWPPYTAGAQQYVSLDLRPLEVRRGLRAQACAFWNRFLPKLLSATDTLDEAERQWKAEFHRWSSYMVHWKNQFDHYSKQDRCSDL
From the text: as §1

PDE4D2 = PDE4D2 (Homo sapiens, UniProt Q08499); experiment: SAFETYScan Non-Kinase Enzymes Enzymatic, Inhibitor; format: biochemical
Sequence of PDE4D2 (Q08499 303-809 limits assumed): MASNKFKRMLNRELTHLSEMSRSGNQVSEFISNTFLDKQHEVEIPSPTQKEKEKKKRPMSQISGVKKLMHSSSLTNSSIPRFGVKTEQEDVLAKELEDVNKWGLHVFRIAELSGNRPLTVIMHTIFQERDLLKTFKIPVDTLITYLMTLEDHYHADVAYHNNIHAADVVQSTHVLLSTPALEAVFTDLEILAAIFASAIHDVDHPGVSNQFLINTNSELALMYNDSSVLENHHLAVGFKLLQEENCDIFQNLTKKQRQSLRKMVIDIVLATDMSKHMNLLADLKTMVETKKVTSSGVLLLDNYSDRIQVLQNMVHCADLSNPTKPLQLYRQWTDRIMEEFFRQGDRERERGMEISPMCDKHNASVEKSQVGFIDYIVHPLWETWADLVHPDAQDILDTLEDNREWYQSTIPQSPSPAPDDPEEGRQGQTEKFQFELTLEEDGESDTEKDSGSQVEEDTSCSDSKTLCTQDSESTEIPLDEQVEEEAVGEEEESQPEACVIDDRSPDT
From the text: as §1

PDE3A = PDE3A (Homo sapiens, UniProt Q14432); experiment: SAFETYScan Non-Kinase Enzymes Enzymatic, Inhibitor; format: biochemical
From the text: as §1

MAOA = MAOA (Homo sapiens, UniProt P21397); experiment: SAFETYScan Non-Kinase Enzymes Enzymatic, Inhibitor; format: biochemical
From the text: as §1

COX2 = COX2 (Homo sapiens, UniProt P35354); experiment: SAFETYScan Non-Kinase Enzymes Enzymatic, Inhibitor; format: biochemical
Sequence of COX2 (P35354 18-604): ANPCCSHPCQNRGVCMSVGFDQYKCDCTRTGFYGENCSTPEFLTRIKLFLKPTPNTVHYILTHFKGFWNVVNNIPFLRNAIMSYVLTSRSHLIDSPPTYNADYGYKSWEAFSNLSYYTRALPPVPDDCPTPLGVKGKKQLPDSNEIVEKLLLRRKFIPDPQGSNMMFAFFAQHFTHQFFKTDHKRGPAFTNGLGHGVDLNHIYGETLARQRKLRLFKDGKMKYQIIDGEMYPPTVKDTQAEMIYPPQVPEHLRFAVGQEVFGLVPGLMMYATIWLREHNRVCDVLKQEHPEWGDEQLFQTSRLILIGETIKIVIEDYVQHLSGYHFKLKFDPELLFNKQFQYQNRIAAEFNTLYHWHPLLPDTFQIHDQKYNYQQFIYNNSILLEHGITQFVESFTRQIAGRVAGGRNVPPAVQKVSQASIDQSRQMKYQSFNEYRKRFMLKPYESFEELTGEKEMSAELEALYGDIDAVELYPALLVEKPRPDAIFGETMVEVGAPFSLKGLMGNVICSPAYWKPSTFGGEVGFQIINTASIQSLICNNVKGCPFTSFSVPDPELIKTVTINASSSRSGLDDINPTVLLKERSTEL
From the text: as §1

in vitro = in vitro ADME; conditions: bovine; fraction unbound in OCI-Ly1 DC50 assay medium; read-out: fu,media
Karpas 422 = experiment: Cell proliferation assay (14 days), Karpas 422
Procedure: Cells were seeded in 96-well culture plates at a density of 2500 cells/well in RPMI-1640 medium (Sigma-
Aldrich) supplemented with 10% FBS (Gibco). Compounds were initially dispensed into 96-well U-bottom
plates using an Echo 550 acoustic dispenser (Labcyte Inc.), then diluted in RPMI-1640 medium and
transferred onto the cells. Cells were treated with 8 compound concentrations in duplicate, ranging from
with compound for 14 days, with medium changes at days 3, 7 and 10 carried out as follows: fresh 96-well
cell culture plates were prepared containing 100 µl medium plus compound at the assay concentrations
(white plates were used on day 10 to optimise luminescence measurement). Assay plates containing cells
were vortexed to mix and cell density in one control well was counted using a Coulter Z2 cell counter
(Beckman Coulter). The volume of medium containing 2500 cells in the control well was calculated and this volume of cells was transferred from every well of the assay plates to the corresponding well of the fresh plates containing compound. After 14 days, CellTiter Glo reagent (Promega) was added to the medium in each well of the assay plate at a ratio of 1:2, mixed on a plate shaker, then incubated at room temperature for 10 minutes. Luminescence was measured using an Envision plate reader (Perkin Elmer) and the relative luminescence at each compound concentration, compared to DMSO alone, was calculated. GI50 were determined using a 4-parameter curve fit in Dotmatics (Bishops Stortford, UK).

Compound `C[C@H]1C[C@@H](O)CN(c2ncc(Cl)c(Nc3ccc4c(c3)c3c(c(=O)n4C)OCC(F)(F)[C@H](C4CC4)N3)n2)C1` [12a CCT373566, (S)-10-((5-Chloro-2-((3R,5S)-3-hydroxy-5-methylpiperidin-1-yl)pyrimidin-4-yl)amino)-2-cyclopropyl-3,3-difluoro-7-methyl-1,2,3,4-tetrahydro-[1,4]oxazepino[2,3-c]quinolin-6(7H)-one] has a chromatographic logD [1] of 3, an Emax (CCKAR; read-out: Max Response) of 0% and a pIC50 (CCKAR; read-out: RC50 (IC50)) of under 5.00. It also gave an Emax (CHRM3; read-out: Max Response) of 0%, a pIC50 (CHRM3; read-out: RC50 (IC50)) of under 5.00 and an Emax (HTR2A; read-out: Max Response) of 1.76%. It also gave a pIC50 (HTR2A; read-out: RC50 (IC50)) of under 5.00, an Emax (CHRM1; read-out: Max Response) of 3.44% and a pIC50 (CHRM1; read-out: RC50 (IC50)) of under 5.00. The microsomal CLint at 0.5 h, 1 µM ([2]; both sexes, pH 7.4) was 8 µL/min/mg, the “CLint (HLM)” value [2] was “low clearance” and the Emax (SERT; read-out: Max Response) was 0%. For the same compound, the pIC50 (SERT; read-out: RC50 (IC50)) was under 5.00, the Emax (NET; read-out: Max Response) was 8.36% and the pIC50 (NET; read-out: RC50 (IC50)) was under 5.00. It also gave an Emax (DAT; read-out: Max Response) of 0%, a pIC50 (DAT; read-out: RC50 (IC50)) of under 5.00 and an Emax (COX1; read-out: Max Response) of 33%. The pIC50 (COX1; read-out: RC50 (IC50)) was under 5.00, the Emax (AChE; read-out: Max Response) was 3.36% and the pIC50 (AChE; read-out: RC50 (IC50)) was under 5.00. The Emax (PDE4D2; read-out: Max Response) was 10.8%, the pIC50 (PDE4D2; read-out: RC50 (IC50)) was under 5.00 and the Emax (PDE3A; read-out: Max Response) was 0.2%. For the same compound, the pIC50 (PDE3A; read-out: RC50 (IC50)) was under 5.00, the Emax (MAOA; read-out: Max Response) was 0% and the pIC50 (MAOA; read-out: RC50 (IC50)) was under 5.00. It also gave an Emax (COX2; read-out: Max Response) of 0%, a pIC50 (COX2; read-out: RC50 (IC50)) of under 5.00 and a fraction unbound (in vitro) of 0.13. The “Karpas 422 GI50” value (Karpas 422; 14-day proliferation assay) was “Very potent growth inhibition” and the GI50 (Karpas 422; Homo sapiens, KARPAS-422, 336 h, read-out: Karpas 422 GI50) was 0.0014 µM.
